According to patent publication US20100152137A1, “Alkylphospholipids as active agents for prevention of plant pathogens” (KTB-Tumorforschungs GMBH, priority 2006, published 2010):
Several values for one entry are separate records, joined by “and”; a condition that tells them apart may be missing. Equal values may be shown once.

Legend:
Plasmopara viticola [1] = experiment: Grapevine leaf disk test against downy mildew; type: in vivo, Plasmopara viticola on Vitis vinifera cv. Müller-Thurgau; conditions: for Average infestation intensity: five-point scale 1-5, per experiment; for No. of leaf disks at scale point 1 (no sporulation) / No. of leaf disks at scale point 2 / No. of leaf disks at scale point 3 / No. of leaf disks at scale point 4 / No. of leaf disks at scale point 5 (sporulation all over the surface): six days after infection
Experimental: Greenhouse plants of the variety Müller-Thurgau (Vitis vinifera cv. Müller-Thurgau) served as the starting material. Young leaves were sterilized on the surface with 70% (v/v) ethanol. Subsequently, leaf disks of 16 mm in diameter were punched out and placed upside down onto water agar (0.8%) in transparent boxes. One drop (about 60 μl) of an aqueous test solution (concentrations employed, see FIG. 1) was applied 24 h before the infection with the pathogen causing downy mildew (Plasmopara viticola), and the leaf disks were incubated at 25° C. (16 h of white light 300 μmol m^−2 s^−1; 8 h of dark) and >95% relative humidity. After 24 h, the drop was removed and replaced by a drop containing spores of the pathogen (about 50 μl of an aqueous suspension containing 2×10^5 sporangia/mil). The infestation intensity was determined six days after the infection.
The infestation intensity was determined by means of a five-point scale ranging from 1 (no sporulation) to 5 (sporulation all over the surface). For each substance and concentration, 10 leaf disks per experiment were evaluated, and the mean value from at least three independent parallel experiments was determined. Distilled water and phosphite as negative and positive controls, respectively.

[2] = tested on: single cell culture of Vitis vinifera cv. Pinot noir; experiment: pH change (alcalinization) in the medium of a single cell culture of grapevine; type: cell-based
Description: A response of plant cells to substances that can induce resistance in plants is to open ion channels in the cell membrane. Thereupon, protons flow into the interior of the cell, which causes alcalinization of the medium surrounding the cell. This temporary alcalinization has been measured.
Greenhouse plants of the variety Pinot noir (Vitis vinifera cv. Pinot noir) served as the starting material. A callus culture was started first from young shoots. Thus, the plant parts were cut into pieces about 1-2 cm in size, washed in 70% (v/v) ethanol and sterilized in 3.5% (w/v) NaOCl solution for about 2 min. The sterilized tissue pieces were transferred to solid MS nutrient medium (Murashige, T. and Skoog, F., Physiol. Plant, 18: 100-127 (1962)) and slightly pushed into the agar, so that the cuts came into contact with the medium. The formation of callus tissue occurred at 23° C. in a phytochamber (16 h of white light 300 μmol m^−2 s^−1; 8 h of dark; >95% relative humidity). At the cuts, calluses formed, which were repeatedly transferred to a new medium in a sterile manner after 4-6 weeks.
Starting from strongly growing callus cultures, single cell cultures were started. Thus, cells were passaged under sterile conditions from callus tissue to liquid MS nutrient medium. The cell cultures were grown in a temperature constant room at 23° C. on a rotary shaker (120 rpm). In regular passage cycles of 4 days, the cell cultures were admixed with 40 ml of new liquid MS nutrient medium and distributed in two equal parts of about 40 ml to two 250 ml Erlenmeyer flasks.
For measuring the pH of the medium, 10 ml of a 2 days old cell culture was added to a small rolled rim vial. The rolled rim vial was placed onto a shaker, and a pH electrode was immersed into the cell culture. The electrode was fixed to be constantly washed round by the cell culture. The revolutions per minute of the shaker was 140 rpm. After the measured pH had stabilized, the substance to be tested was added, and the change of pH was continuously recorded with a plotter.

Plasmopara viticola [3] = experiment: Downy mildew control on intact greenhouse plants; type: in vivo, Plasmopara viticola on Vitis vinifera cv. Müller-Thurgau; conditions: for II (%) per REP / II (%) per variant: infestation intensity; for RW II IF (%): relation value for infestation frequency vs control; for RW II II (%): relation value for infestation intensity vs control
Experimental: Greenhouse plants of the variety Müller-Thurgau (Vitis vinifera cv. Müller-Thurgau) served as the starting material. At least three plants each in the ten leaf stage were employed per test solution. HePC was applied (sprayed with the application device System Schachtner) in concentrations of 0.01%, 0.05% and 0.1%. In an additional experiment with 0.01% HePC, the same concentration of HePC (0.01%) was additionally applied one week before (2×HePC). After 24 h from the application of the test solutions, the plants were infected with the pathogen causing downy mildew (Plasmopara viticola). Six days after the infection, the sporulation of Plasmopara viticola was induced, and then the infestation intensity was established.
Thus, the percent proportion of the sporulating surface area relative to the entire surface area of each leaf was visually observed. For each substance and concentration, the leaves of at least three plants were evaluated, and the mean value determined. The application of distilled water served as a negative control. The experiment was repeated twice.

[4] = tested on: pathogen causing downy mildew of grapevine; experiment: Outdoor test in the vineyard under practical conditions; type: in vivo, Müller-Thurgau grapevine; conditions: HePC 0.2%, no artificial infection, status Jun. 19, 2007
Description: Currently (vegetation period of 2007), HePC (0.2%) is being tested in an outdoor test. In these experiments, the plants in a commercial vineyard (Müller-Thurgau, age about 15 years) are not artificially infected. For this experiment, 3×6 plants (different locations in the vineyard) were employed. In addition, a corresponding untreated control is observed. […] Thus, to date, it has not been possible to observe infestation of the plants treated with HePC, despite of the currently sticky and humid weather (optimum infection conditions) and the very early start of the vegetation period in this year. In contrast, infestation of the control has already been observed.

Plasmopara viticola [5] = experiment: Downy mildew control on Gutedel seedlings; type: in vivo, Plasmopara viticola on Gutedel seedlings; conditions: for Infestation incidence (%) / Infestation intensity (%): evaluated after 10 days
Experimental: The examinations were performed with seedlings of the variant “Gutedel”, the seedlings having 3-4 leaves and a height of 8-12 cm at the time of application. HePC (0.01 and 0.001%) was applied with a rotary plate automated spraying device (about 1.2 bar spraying pressure) for 20 seconds. For each concentration, 6 plants were treated, which also applied to the positive control (infection, no treatment) and negative control (no infection, no treatment).
After the leaves had dried, the plants were infected/sprayed with Plasmopara viticola (spore suspension (100,000 spores/ml)) and further kept at 21° C. and 100% RH in a cycle of 16 h of day and 8 h of night.
The proportion of leaves infested (incidence) and the intensity of infestation, i.e., the infested proportion of the leaf areas, were evaluated.

[6] = HePC 0.05%, infestation frequency

CCCCCCCCCCCCCCCCOP(=O)([O-])OCC[N+](C)(C)C [HePC, hexadecylphosphocholine]
Average infestation intensity (Plasmopara viticola [1]; HePC 0.0001%): 5.0 and 2.9 | No. of leaf disks at scale point 1 (no sporulation) (Plasmopara viticola [1]; HePC 0.0001%): 0 | Average infestation intensity (Plasmopara viticola [1]; HePC 0.01%): 1.0 | No. of leaf disks at scale point 1 (no sporulation) (Plasmopara viticola [1]; HePC 0.01%): 9 | No. of leaf disks at scale point 2 (Plasmopara viticola [1]; HePC 0.01%): 0 | No. of leaf disks at scale point 3 (Plasmopara viticola [1]; HePC 0.01%): 0 | No. of leaf disks at scale point 4 (Plasmopara viticola [1]; HePC 0.01%): 0 | No. of leaf disks at scale point 5 (sporulation all over the surface) (Plasmopara viticola [1]; HePC 0.01%): 0 | Average infestation intensity (Plasmopara viticola [1]; HePC 0.1%): 1.0 | No. of leaf disks at scale point 1 (no sporulation) (Plasmopara viticola [1]; HePC 0.1%): 9 | No. of leaf disks at scale point 2 (Plasmopara viticola [1]; HePC 0.1%): 0 | No. of leaf disks at scale point 3 (Plasmopara viticola [1]; HePC 0.1%): 0 | No. of leaf disks at scale point 4 (Plasmopara viticola [1]; HePC 0.1%): 0 | No. of leaf disks at scale point 5 (sporulation all over the surface) (Plasmopara viticola [1]; HePC 0.1%): 0 | Δ (pH) ([2]; HePC final concentration 0.00025%): 0.03 | Δ (pH) ([2]; HePC final concentration 0.00050%): 0.16 | Δ (pH) ([2]; HePC final concentration 0.00075%): 0.25 | Δ (pH) ([2]; HePC final concentration 0.00100% (w/v)): 0.41 | IF (%) per variant (Plasmopara viticola [3]; HePC 0.01% applied once, infestation frequency): 53.4% | II (%) per REP (Plasmopara viticola [3]; HePC 0.01% applied once): 1.67% and 2.89% and 4.00% | II (%) per variant (Plasmopara viticola [3]; HePC 0.01% applied once): 2.85% | RW II IF (%) (Plasmopara viticola [3]; HePC 0.01% applied once): 23.6% and 23.56% | RW II II (%) (Plasmopara viticola [3]; HePC 0.01% applied once): 73.2% and 73.16% | II (%) per REP (Plasmopara viticola [3]; HePC 0.01%, 2 x (also applied one week before)): 0.20% and 0.80% and 0.11% | IF (%) per variant (Plasmopara viticola [3]; HePC 0.01%, 2 x, infestation frequency): 23.7% | II (%) per variant (Plasmopara viticola [3]; HePC 0.01%, 2 x): 0.37% | RW II IF (%) (Plasmopara viticola [3]; HePC 0.01%, 2 x): 66.1% and 66.09% | RW II II (%) (Plasmopara viticola [3]; HePC 0.01%, 2 x): 96.5% and 96.51% | IF (%) per REP (Plasmopara viticola [3]; [6]): 33.3% and 44.4% | IF (%) per variant (Plasmopara viticola [3]; [6]): 37.0% | II (%) per REP (Plasmopara viticola [3]; HePC 0.05%): 2.22% and 1.33% and 0.33% | II (%) per variant (Plasmopara viticola [3]; HePC 0.05%): 1.30% | RW II IF (%) (Plasmopara viticola [3]; HePC 0.05%): 47.0% and 47.02% | RW II II (%) (Plasmopara viticola [3]; HePC 0.05%): 87.8% | IF (%) per variant (Plasmopara viticola [3]; HePC 0.1%, infestation frequency): 25.0% | II (%) per REP (Plasmopara viticola [3]; HePC 0.1%): 0.11% and 0.33% and 0.89% | II (%) per variant (Plasmopara viticola [3]; HePC 0.1%): 0.36% | RW II IF (%) (Plasmopara viticola [3]; HePC 0.1%): 64.2% and 64.24% | RW II II (%) (Plasmopara viticola [3]; HePC 0.1%): 96.6% | prevention of pathogen infestation [4]: good effect | infestation increased by a factor (Plasmopara viticola [5]; 0.001% HePC compared with 0.01% HePC): 10 | Infestation incidence (%) (Plasmopara viticola [5]; HePC 0.001%): 43% | Infestation intensity (%) (Plasmopara viticola [5]; HePC 0.001%): 33.9% | leaves infested as compared to the positive control (Plasmopara viticola [5]; HePC 0.01%): 25% | Infestation incidence (%) (Plasmopara viticola [5]; HePC 0.01%): 13% | Infestation intensity (%) (Plasmopara viticola [5]; HePC 0.01%): 3.6%
